Measurements taken from article PMC5562305, “Impact of novel palmitoylated prolactin-releasing peptide analogs on metabolic changes in mice with diet-induced obesity” (PLoS ONE, 2017).
Starred links: 1 amine or outer side, 2 acyl side, 3 side chain; linkers in the order of their positions; H or OH if unused. Residues, ends and D or L forms follow the SMILES beside them. Groups on a side chain read outwards from the residue. *: point of attachment. γGlu = O=C(O)[C@H](CCC(=O)[*:2])N[*:1]; Palmitoyl = CCCCCCCCCCCCCCCC(=O)*

Tested on: urinary metabolites
Assay: NMR-based metabolomics of urine of DIO mice
Format: in vivo, C57BL/6 mice
Design: key to DMA, Mean / DMG, Mean / MA, Mean / TMA, Mean / acetate, Mean / allantoin, Mean / carnitine, Mean / choline, Mean / cis-aconitate, Mean / creatine+creatinine, Mean / creatine, Mean / creatinine, Mean / ethanolamine, Mean / formate, Mean / galactose, Mean / glucose, Mean / glycine, Mean / lactate, Mean / succinate, Mean / vinylacetylglycine, Mean: TSA-normalized intensity of the metabolite's representative NMR signal
Settings: urine NMR signal, DIO mice
Procedure: Urine samples for NMR-based metabolomics were collected prior to the start of the interventions and at the end of the experiment. For overnight urine collection (from 5 pm to 8 am), the mice were housed in individual metabolic cages (Tecniplast, Buguggiate, Italy) without access to food. Samples were collected with the addition of NaN3 and stored at -80°C until NMR analysis.
The urine samples were thawed at room temperature and centrifuged at 13 684 x g for 5 min prior to the NMR experiments. A 200-μl aliquot of supernatant was diluted with 340 μl of H2O mixed with 60 μl of phosphate buffer (1.5 M KH2PO4 in D2O containing 2 mM NaN3 and 0.1% trimethylsilyl propionic acid (TSP), pH 7.4) and transferred to a 5-mm NMR tube. The NMR data were acquired with a 600 MHz Bruker Avance III spectrometer (Bruker BioSpin, Rheinstetten, Germany) equipped with a 5-mm TCI cryogenic probe head. All of the experiments were performed at 300 K. Automatic tuning, matching, shimming and adjusting of the 90° pulse length were performed for each sample.
As mouse urine naturally contains urinary proteins, the NMR spectra were acquired using a Carr-Purcell-Meiboom-Gill (CPMG) pulse sequence with water presaturation (Bruker pulse sequence cpmgpr1d) to eliminate the strong protein background. […] For better metabolite identification, a short J-resolved experiment with presaturation (NS = 2, SW = 16 ppm, TD = 8k, number of increments = 40, SW = 78.125 Hz in the indirect dimension, and relaxation delay = 2 s) was executed for all samples. Additional two-dimensional ^1H-^1H correlation spectroscopy (COSY) and ^1H-^13C heteronuclear multiple-quantum correlation (HMQC) experiments (Bruker pulse sequences cosygpprqf and hmqcphpr) were performed for selected samples.
The acquired data were processed using Topspin 3.2 software (Bruker BioSpin, Rheinstetten, Germany). Line broadening of 0.3 Hz was applied on free induction decays (FIDs) prior to Fourier transformation. The spectra were automatically phased, baseline corrected and referenced to the signal of TSP (0.00 ppm).
The assignment of individual metabolites was achieved by comparing the proton spectra with the spectra of pure metabolites using Chenomx NMR Suite 7.6 (Chenomx Inc., Edmonton, AB, Canada), the HMDB database and previously published metabolomic data. The identification of metabolites was supported through J-resolved and COSY experiments and, if possible, confirmed using carbon chemical shifts extracted from the HMQC spectra.
For quantitation of individual metabolites, the CPMG spectra were uniformly binned in the range of 0.10–10.00 ppm to 0.01-ppm intervals using AMIX software (Bruker BioSpin, Rheinstetten, Germany). This procedure reduced the dimensionality of the data, eliminated chemical shift variations and thus simplified the reproducible automatic quantification. Regions corresponding to water (4.60–4.90 ppm) and urea (5.60–6.00 ppm) were removed prior to analysis. As the dilutions of the original urine samples differed (due to the differences in water intake during urine collection), all of the spectra were normalized to the total spectral area (TSA). For each identified metabolite, one representative signal was chosen and then quantified as the sum of appropriate adjacent 0.01-ppm bins to cover the whole signal width. The metabolite concentration was expressed as the TSA-normalized intensity of the respective signal. For selection of an appropriate statistical method (parametric or non-parametric) the Lilliefors test of normality was performed. […] Metabolite alterations with a P < 0.05 were considered statistically significant. Statistical analysis was performed using Matlab software (“MATLAB version 8.6 (R2015b). Natick, Massachusetts: The MathWorks Inc., 2015.,” n.d.). […]

Compound: CCCCCCCCCCCCCCCC(=O)N[C@@H](CCC(=O)NCCCC[C@H](NC(=O)[C@@H](NC(=O)[C@H](CCC(=O)O)NC(=O)[C@H](CCSC)NC(=O)[C@H](CO)NC(=O)[C@H](Cc1c[nH]cn1)NC(=O)[C@H](CCCNC(=N)N)NC(=O)[C@H](Cc1c[nH]cn1)NC(=O)[C@@H](NC(=O)[C@H](CCCNC(=N)N)NC(=O)[C@@H](N)CO)[C@@H](C)O)[C@@H](C)CC)C(=O)N[C@H](C(=O)N1CCC[C@H]1C(=O)N[C@@H](CC(=O)O)C(=O)N[C@H](C(=O)N[C@@H](CC(N)=O)C(=O)N1CCC[C@H]1C(=O)N[C@@H](C)C(=O)N[C@@H](Cc1c[nH]c2ccccc12)C(=O)N[C@@H](Cc1ccc(O)cc1)C(=O)N[C@@H](C)C(=O)N[C@@H](CO)C(=O)N[C@@H](CCCNC(=N)N)C(=O)NCC(=O)N[C@H](C(=O)N[C@@H](CCCNC(=N)N)C(=O)N1CCC[C@H]1C(=O)N[C@H](C(=O)NCC(=O)N[C@@H](CCCNC(=N)N)C(=O)N[C@@H](Cc1ccccc1)C(N)=O)C(C)C)[C@@H](C)CC)[C@@H](C)CC)[C@@H](C)O)C(=O)O [analog 1] (H-SRTHRHSMEIK([γGlu-Palmitoyl])TPDINPAWYASRGIRPVGRF-NH2; N-terminus assumed)
- 2-OG (2.45 ppm), Saline/analog1 % (change of group mean vs saline): 0.026%
- 2-OG (3.01 ppm), Saline/analog1 % (change of group mean vs saline): -0.000867%
- 2-PY (8.33 ppm), Saline/analog1 % (change of group mean vs saline): -0.107%
- 3-indoxylsulfate (7.51 ppm), Saline/analog1 % (change of group mean vs saline): 0.024%
- 3-indoxylsulfate (7.71 ppm), Saline/analog1 % (change of group mean vs saline): 0.023%
- 4-PY (7.97 ppm), Saline/analog1 % (change of group mean vs saline): -0.088%
- 4-PY (8.55 ppm), Saline/analog1 % (change of group mean vs saline): -0.153%
- DMA, Saline/analog1 % (change of group mean vs saline): 0.019%
- MNA-Nox (8.75 ppm), Saline/analog1 % (change of group mean vs saline): -0.117%
- N-carbamoylalanine (2.38 ppm), Saline/analog1 % (change of group mean vs saline): 0.020%
- N-carbamoylalanine (3.31 ppm), Saline/analog1 % (change of group mean vs saline): -0.071%
- N-isovalerylglycine + oxovalerate (0.92 ppm), Saline/analog1 % (change of group mean vs saline): 0.093%
- TMA, Saline/analog1 % (change of group mean vs saline): -0.084%
- acetate, Saline/analog1 % (change of group mean vs saline): 0.161%
- allantoin, Saline/analog1 % (change of group mean vs saline): 0.042%
- carnitine, Saline/analog1 % (change of group mean vs saline): 0.063%
- choline, Saline/analog1 % (change of group mean vs saline): 0.027%
- cis-aconitate, Saline/analog1 % (change of group mean vs saline): -0.010%
- citrate (2.55 ppm), Saline/analog1 % (change of group mean vs saline): -0.078%
- citrate (2.69 ppm), Saline/analog1 % (change of group mean vs saline): -0.081%
- creatine+creatinine, Saline/analog1 % (change of group mean vs saline): 0.078%
- creatine, Saline/analog1 % (change of group mean vs saline): -0.018%
- creatinine, Saline/analog1 % (change of group mean vs saline): 0.087%
- ethanolamine, Saline/analog1 % (change of group mean vs saline): -0.040%
- formate, Saline/analog1 % (change of group mean vs saline): 0.026%
- fumarate, Saline/analog1 % (change of group mean vs saline): -0.176%
- galactose, Saline/analog1 % (change of group mean vs saline): -0.073%
- glucose, Saline/analog1 % (change of group mean vs saline): -0.101%
- glycine, Saline/analog1 % (change of group mean vs saline): -0.064%
- hexanoylglycine + acids (0.88 ppm), Saline/analog1 % (change of group mean vs saline): 0.195%
- hippurate (7.55 ppm), Saline/analog1 % (change of group mean vs saline): -0.067%
- hippurate (7.64 ppm), Saline/analog1 % (change of group mean vs saline): -0.069%
- hippurate (7.84 ppm), Saline/analog1 % (change of group mean vs saline): -0.067%
- lactate, Saline/analog1 % (change of group mean vs saline): 0.188%
- multiplet acids (1.6 ppm), Saline/analog1 % (change of group mean vs saline): 0.198%
- putrescin, Saline/analog1 % (change of group mean vs saline): 0.025%
- succinate, Saline/analog1 % (change of group mean vs saline): 0.118%
- taurine (3.27 ppm), Saline/analog1 % (change of group mean vs saline): -0.289%
- taurine (3.43 ppm), Saline/analog1 % (change of group mean vs saline): -0.352%
- trigonelline (8.84 ppm), Saline/analog1 % (change of group mean vs saline): -0.128%
- trigonelline (9.13 ppm), Saline/analog1 % (change of group mean vs saline): -0.163%
- vinylacetylglycine, Saline/analog1 % (change of group mean vs saline): 0.197%
- 2-OG (2.45 ppm), Mean (group mean): 12.062
- 2-OG (3.01 ppm), Mean (group mean): 10.231
- 2-PY (8.33 ppm), Mean (group mean): 1.038
- 3-indoxylsulfate (7.51 ppm), Mean (group mean): 1.334
- 3-indoxylsulfate (7.71 ppm), Mean (group mean): 0.788
- 4-PY (7.97 ppm), Mean (group mean): 1.650
- 4-PY (8.55 ppm), Mean (group mean): 0.491
- DMA, Mean (group mean): 5.115
- DMG, Mean (group mean): 1.908
- MA, Mean (group mean): 2.952
- MNA (8.90 ppm), Mean (group mean): 0.369
- MNA (8.97 ppm), Mean (group mean): 0.353
- MNA (9.265 ppm), Mean (group mean): 0.370
- MNA-Nox (7.75 ppm), Mean (group mean): 0.962
- MNA-Nox (8.13 ppm), Mean (group mean): 0.690
- MNA-Nox (8.49 ppm), Mean (group mean): 0.452
- MNA-Nox (8.75 ppm), Mean (group mean): 0.431
- N-carbamoylalanine (2.38 ppm), Mean (group mean): 10.982
- N-carbamoylalanine (3.31 ppm), Mean (group mean): 8.810
- N-isovalerylglycine + oxovalerate (0.92 ppm), Mean (group mean): 15.843
- TMA, Mean (group mean): 11.127
- acetate, Mean (group mean): 4.363
- allantoin, Mean (group mean): 21.031
- carnitine, Mean (group mean): 6.328
- choline, Mean (group mean): 2.023
- cis-aconitate, Mean (group mean): 8.788
- citrate (2.55 ppm), Mean (group mean): 30.039
- citrate (2.69 ppm), Mean (group mean): 27.401
- creatine+creatinine, Mean (group mean): 24.594
- creatine, Mean (group mean): 6.851
- creatinine, Mean (group mean): 12.065
- ethanolamine, Mean (group mean): 7.631
- formate, Mean (group mean): 0.204
- fumarate, Mean (group mean): 0.145
- galactose, Mean (group mean): 0.718
- glucose, Mean (group mean): 3.260
- glycine, Mean (group mean): 5.697
- hexanoylglycine + acids (0.88 ppm), Mean (group mean): 15.760
- hippurate (7.55 ppm), Mean (group mean): 4.327
- hippurate (7.64 ppm), Mean (group mean): 2.207
- hippurate (7.84 ppm), Mean (group mean): 4.594
- lactate, Mean (group mean): 7.323
- multiplet acids (1.6 ppm), Mean (group mean): 12.799
- putrescin, Mean (group mean): 9.134
- succinate, Mean (group mean): 12.041
- taurine (3.27 ppm), Mean (group mean): 18.310
- taurine (3.43 ppm), Mean (group mean): 14.649
- trigonelline (8.84 ppm), Mean (group mean): 0.272
- trigonelline (9.13 ppm), Mean (group mean): 0.107
- vinylacetylglycine, Mean (group mean): 3.595
